EC50 data for 19 compounds are collected here from patent US12319676B2, “Substituted amide compounds useful as farnesoid X receptor modulators” (BRISTOL-MYERS SQUIBB COMPANY, priority 2019, dated 2025).

One may read the EC50 as the concentration that produces a half-maximal response. A high value points to a less potent agent.

The structures appear in SMILES notation.

The assay has as its target T1, human FXR (Homo sapiens, UniProt Q96RI1).
T1 construct: expressed in transfected cells; host or cells: HEK293 cells stably carrying a 5xGal4 response element-luciferase reporter, transiently transfected with pcDNA3.1-Gal4-FXR
T1 sequence (Q96RI1 262-486 limits assumed): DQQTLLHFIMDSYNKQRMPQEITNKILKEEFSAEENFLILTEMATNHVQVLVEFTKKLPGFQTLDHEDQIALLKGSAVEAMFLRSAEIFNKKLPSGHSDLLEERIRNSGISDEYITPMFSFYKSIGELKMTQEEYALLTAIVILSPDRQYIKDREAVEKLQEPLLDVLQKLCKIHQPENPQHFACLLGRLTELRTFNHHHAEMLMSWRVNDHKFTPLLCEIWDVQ
The assay is described as follows: transient human FXR/Gal4-luciferase reporter assay. The note with it: Gal4-hFXR fusion construct, luciferase reporter in HEK293 cells; overnight incubation; response as percentage of 8 μM GW-4064 control. The format is cell-based. How it is done: The exemplified compounds of the present invention were tested in the transient human FXR/Gal4-luciferase reporter assay, and assay results were reported in Table 1 and Examples 1 to 3 together with other analytical data. A Gal4-hFXR fusion construct reporter system was used as the primary assay to characterize compound activity. A construct including 5 copies of the Gal4 promoter response element upstream of a firefly luciferase reporter cDNA was stably expressed in HEK293 cells. This reporter cell line was maintained in Dulbecco's Modified Eagle's medium (DMEM; Gibco) supplemented with 1% penicillin-streptomycin (P/S) solution, 500 μg/mL Zeocin and 10% charcoal/dextran-treated fetal bovine serum (cs-FBS) at 37° C. in a humidified 5% CO2 atmosphere. Another plasmid was constructed in which the human cytomegalovirus promoter in the pcDNA3.1 vector directs the expression of the cDNA encoding a fusion protein comprised of the DNA binding domain from the Gal4 transcription factor fused to the ligand binding domain from human FXR. The day prior to transfection, the reporter cells in culture are detached from the plate with trypsin and plated into a T75 flask at a sufficient density to achieve approximately 90% confluence the next morning. The transfection reagents are prepared by separately diluting 25 μg of the pcDNA3.1-Gal4-FXR plasmid into 1.87 mL of Opti-MEM (Thermo-Fisher), and 40 μL of Lipofectamine 2000 (Thermo-Fisher) into 1.87 mL of Opti-MEM, and then adding the diluted DNA solution into the diluted Lipofectamine 2000 solution and incubating at room temperature for 15-20 minutes. The mixture is further diluted with 10 mL of a solution comprised of DMEM, 10% cs-FBS, and 1% P/S immediately prior to transferring to the cells. The maintenance culture media is aspirated from the cells and the final transfection mixture is added before the cells are incubated overnight at 37° C. in a humidified 5% CO2 atmosphere. This protocol can be scaled up, and the transiently transfected cells can be cryopreserved in an assay-ready format. For compound testing, 100 nL of the compounds (serial dilutions in DMSO) are dispensed with an Echo acoustic dispenser (Labcyte) into the wells of a Corning/Costar clear bottom 384-well white plate. The transfected cells are harvested, counted, and diluted such that 10-25,000 cells in 25 μL are plated into each well of the 384-well compound assay plate. The compound-treated cells are incubated overnight at 37° C. in a humidified 5% CO2 atmosphere. The next morning 25 μL of Steady-Glo (Promega) are added to each well of the plate, the mixture is incubated for 15 min. with shaking, and luminescence is measured on an Envision (Perkin Elmer) plate reader. Background counts from cells treated with DMSO alone are subtracted from all raw counts, and the corrected values are converted to a percentage of the control response attained with 8 μM GW-4064.

For the compound `CC(F)(F)c1nc(C23CCC(CN(C(=O)C4CC4(F)F)c4cccc(Br)c4)(CC2)CC3)no1` (racemic) [Example 31, N-(3-bromophenyl)-N-((4-(5-(1,1-difluoroethyl)-1,2,4-oxadiazol-3-yl)bicyclo[2.2.2]octan-1-yl)methyl)-2,2-difluorocyclopropane-1-carboxamide], the EC50 was 261 nM.

Regarding `CC(F)(F)c1nc(C23CCC(CN(C(=O)C45CC(F)(C4)C5)c4cccc(Cl)c4)(CC2)CC3)no1` [Example 1, N-(3-chlorophenyl)-N-((4-(5-(1,1-difluoroethyl)-1,2,4-oxadiazol-3-yl)bicyclo[2.2.2]octan-1-yl)methyl)-3-fluorobicyclo[1.1.1]pentane-1-carboxamide], it took 11 nM to reach a half-maximal effect (EC50). For the compound `CC(F)(F)c1nc(C23CCC(CN(c4cccc(Cl)c4)C(=O)[C@H]4C[C@](O)(C(F)(F)F)C4)(CC2)CC3)no1` [Example 2, N-(3-chlorophenyl)-N-((4-(5-(1,1-difluoroethyl)-1,2,4-oxadiazol-3-yl)bicyclo[2.2.2]octan-1-yl)methyl)-3-hydroxy-3-(trifluoromethyl)cyclobutane-1-carboxamide], the EC50 amounted to 64 nM. The compound `CC(F)(F)c1nc(C23CCC(CN(C(=O)C4CCC(F)(F)CC4)c4cccc(Cl)c4)(CC2)CC3)no1` [Example 3, N-(3-chlorophenyl)-N-((4-(5-(1,1-difluoroethyl)-1,2,4-oxadiazol-3-yl)bicyclo[2.2.2]octan-1-yl)methyl)-4,4-difluorocyclohexane-1-carboxamide] registered an EC50 of 133 nM. Against the preceding compound, the EC50 is about 2.1-fold higher. In turn, `CC(F)(F)c1nc(C23CCC(CN(C(=O)C45CC(F)(C4)C5)c4cccc(C#N)c4)(CC2)CC3)no1` [Example 4, N-(3-cyanophenyl)-N-((4-(5-(1,1-difluoroethyl)-1,2,4-oxadiazol-3-yl)bicyclo[2.2.2]octan-1-yl)methyl)-3-fluorobicyclo[1.1.1]pentane-1-carboxamide] gave an EC50 of 12 nM. In the case of `CC(F)(F)c1nc(C23CCC(CN(C(=O)C4CC(O)(C(F)(F)F)C4)c4cccc(C#N)c4)(CC2)CC3)no1` (stereo not shown) [Example 5, N-(3-cyanophenyl)-N-((4-(5-(1,1-difluoroethyl)-1,2,4-oxadiazol-3-yl)bicyclo[2.2.2]octan-1-yl)methyl)-3-hydroxy-3-(trifluoromethyl)cyclobutane-1-carboxamide], the EC50 was 164 nM. Against the preceding compound, the EC50 is about 14-fold higher. On to `CC(F)(F)c1nc(C23CCC(CN(C(=O)C4CCC(F)(F)CC4)c4cccc(C#N)c4)(CC2)CC3)no1` [Example 6, N-(3-cyanophenyl)-N-((4-(5-(1,1-difluoroethyl)-1,2,4-oxadiazol-3-yl)bicyclo[2.2.2]octan-1-yl)methyl)-4,4-difluorocyclohexane-1-carboxamide], for which the response was half-maximal at 106 nM (EC50). Against the preceding compound, the EC50 is about 1.5-fold lower. With `CC(F)(F)c1nc(C23CCC(CN(C(=O)C45CC(F)(C4)C5)c4cccc(F)c4)(CC2)CC3)no1` [Example 7, N-((4-(5-(1,1-difluoroethyl)-1,2,4-oxadiazol-3-yl)bicyclo[2.2.2]octan-1-yl)methyl)-3-fluoro-N-(3-fluorophenyl)bicyclo[1.1.1]pentane-1-carboxamide] the figure was 30 nM; with `CC(F)(F)c1nc(C23CCC(CN(c4cccc(F)c4)C(=O)[C@H]4C[C@](O)(C(F)(F)F)C4)(CC2)CC3)no1` [Example 8, N-((4-(5-(1,1-difluoroethyl)-1,2,4-oxadiazol-3-yl)bicyclo[2.2.2]octan-1-yl)methyl)-N-(3-fluorophenyl)-3-hydroxy-3-(trifluoromethyl)cyclobutane-1-carboxamide], 462 nM; with `CC(F)(F)c1nc(C23CCC(CN(C(=O)C4CCC(F)(F)CC4)c4cccc(F)c4)(CC2)CC3)no1` [Example 9, N-((4-(5-(1,1-difluoroethyl)-1,2,4-oxadiazol-3-yl)bicyclo[2.2.2]octan-1-yl)methyl)-4,4-difluoro-N-(3-fluorophenyl)cyclohexane-1-carboxamide], 451 nM. With `CC(F)(F)c1nc(C23CCC(CN(C(=O)C45CC(F)(C4)C5)c4ccc(F)c(F)c4)(CC2)CC3)no1` [Example 10, N-((4-(5-(1,1-difluoroethyl)-1,2,4-oxadiazol-3-yl)bicyclo[2.2.2]octan-1-yl)methyl)-N-(3,4-difluorophenyl)-3-fluorobicyclo[1.1.1]pentane-1-carboxamide] the figure was 124 nM. Consider `CC(F)(F)c1nc(C23CCC(CN(C(=O)C4CCC(F)(F)CC4)c4ccc(F)c(F)c4)(CC2)CC3)no1` [Example 11, N-((4-(5-(1,1-difluoroethyl)-1,2,4-oxadiazol-3-yl)bicyclo[2.2.2]octan-1-yl)methyl)-N-(3,4-difluorophenyl)-4,4-difluorocyclohexane-1-carboxamide], for which the EC50 was found to be 881 nM. Under `CC(F)(F)c1nc(C23CCC(CN(C(=O)C45CC(F)(C4)C5)c4cccc(OC(F)F)c4)(CC2)CC3)no1` [Example 12, N-((4-(5-(1,1-difluoroethyl)-1,2,4-oxadiazol-3-yl)bicyclo[2.2.2]octan-1-yl)methyl)-N-(3-(difluoromethoxy)phenyl)-3-fluorobicyclo[1.1.1]pentane-1-carboxamide] stands 73 nM; under `CC(F)(F)c1nc(C23CCC(CN(c4cccc(OC(F)F)c4)C(=O)[C@H]4C[C@](O)(C(F)(F)F)C4)(CC2)CC3)no1` [Example 13, N-((4-(5-(1,1-difluoroethyl)-1,2,4-oxadiazol-3-yl)bicyclo[2.2.2]octan-1-yl)methyl)-N-(3-(difluoromethoxy)phenyl)-3-hydroxy-3-(trifluoromethyl)cyclobutane-1-carboxamide], 302 nM; under `CC(F)(F)c1nc(C23CCC(CN(C(=O)C45CC(F)(C4)C5)c4cccc(C(F)(F)F)c4)(CC2)CC3)no1` [Example 14, N-((4-(5-(1,1-difluoroethyl)-1,2,4-oxadiazol-3-yl)bicyclo[2.2.2]octan-1-yl)methyl)-3-fluoro-N-(3-(trifluoromethyl)phenyl)bicyclo[1.1.1]-pentane-1-carboxamide], 29 nM. `CC(F)(F)c1nc(C23CCC(CN(c4cccc(C(F)(F)F)c4)C(=O)[C@H]4C[C@](O)(C(F)(F)F)C4)(CC2)CC3)no1` [Example 15, N-((4-(5-(1,1-difluoroethyl)-1,2,4-oxadiazol-3-yl)bicyclo[2.2.2]octan-1-yl)methyl)-3-hydroxy-3-(trifluoromethyl)-N-(3-(trifluoromethyl)phenyl)cyclobutane-1-carboxamide] yielded an EC50 of 176 nM. Under `CC(F)(F)c1nc(C23CCC(CN(C(=O)C4CCC(F)(F)CC4)c4cccc(C(F)(F)F)c4)(CC2)CC3)no1` [Example 16, N-((4-(5-(1,1-difluoroethyl)-1,2,4-oxadiazol-3-yl)bicyclo[2.2.2]octan-1-yl)methyl)-4,4-difluoro-N-(3-(trifluoromethyl)phenyl)cyclohexane-1-carboxamide] stands 315 nM; under `COc1cc(N(CC23CCC(c4noc(C(C)(F)F)n4)(CC2)CC3)C(=O)C23CC(F)(C2)C3)ccn1` [Example 17, N-((4-(5-(1,1-difluoroethyl)-1,2,4-oxadiazol-3-yl)bicyclo[2.2.2]octan-1-yl)methyl)-3-fluoro-N-(2-methoxypyridin-4-yl)bicyclo[1.1.1]pentane-1-carboxamide], 149 nM; under `CC(F)(F)c1nc(C23CCC(CN(C(=O)C45CC(F)(C4)C5)c4cccc(S(=O)(=O)NC5CC5)c4)(CC2)CC3)no1` [Example 18, N-(3-(N-cyclopropylsulfamoyl)phenyl)-N-((4-(5-(1,1-difluoroethyl)-1,2,4-oxadiazol-3-yl)bicyclo[2.2.2]octan-1-yl)methyl)-3-fluorobicyclo[1.1.1]pentane-1-carboxamide], 1560 nM.
